Broadly, the viability is a read-out of living cells in per cent, often relative to untreated cells.

Experimental findings from publication PMC12040169 (PLOS Biology, 2025) are described below.

This data set is described as follows: in vitro. As to conditions: human, hela cells, % viability.

Regarding `O=C(COc1ccccc1)c1cn(CC(=O)N2CCc3ccccc32)c2ccccc12` [CBK267659], the viability at 28.5 h, 10 µM was 93.5%.
The figure for `O=C(c1cc(Br)cc2c1OCC2)N1CCCCC1` [CBK007109] is 91.8%.
The value for `Cn1ncc2c(=O)n(Cc3nc(C(C)(C)C)no3)cnc21` [CBK304906] was 87.9%.
The value for `O=C1c2cc(-c3nc(-c4ccccc4)[nH]c3-c3ccccc3)ccc2-c2ccc([N+](=O)[O-])cc21` [CBK262613] was 85%; that for `CCOC(=O)c1sc2nc(C(C)N3CCCCC3)[nH]c(=O)c2c1C` (stereo not drawn) [CBK306078] was 111%.
Consider `CCOc1ccc(C(=O)Nc2ccc(-c3nc4cc(C)c(C)cc4o3)cc2)cc1[N+](=O)[O-]` [CBK262818], for which the viability at 28.5 h, 10 µM was 94.2%.
The figure for `CS(=O)(=O)N(CCc1ccccc1)CC(=O)O` [CBK281244] is 109%; for `CCOC(=O)c1ccoc1C[N+](C)(CC)CC` [CBK007022I] it is 83.7%; for `CN1CCc2c(sc3ncn4nc(-c5ccncc5)nc4c23)C1` [CBK288540] it is 96.2%.
The value for `CN(C)CCCC(=O)NCc1ccc(-c2csnn2)cc1` [CBK149288] was 91%; that for `N#CCCN(CC1CCCO1)S(=O)(=O)c1ccc(OC(F)(F)F)cc1` (stereo not drawn) [CBK044405] was 91.5%.
As for `CCCC12CN3CC(CCC)(CN(C1)C3C(O)C(O)C(O)CO)C2=O` (stereo not drawn) [CBK265529], the viability at 28.5 h, 10 µM was determined as 88.3%.
Take `COc1cc(C(c2c[nH]c3ccccc23)c2c[nH]c3ccccc23)c(Br)cc1OC(C)=O` [CBK266051]: the viability at 28.5 h, 10 µM was 107%.
On to `CC1=NN(c2nc(-c3cccc([N+](=O)[O-])c3)cs2)C(=O)C1/N=N/c1ccc(S(N)(=O)=O)cc1` (stereo not drawn) [CBK262434], for which the viability at 28.5 h, 10 µM is 94%.
As for `CCc1nc2c(OCC=C(C)C)cccn2c1N(C)C(=O)c1cccc(OC)c1` [CBK147448], the viability at 28.5 h, 10 µM is 94.3%.
The value for `O=C(Nc1cc(Oc2cccnc2)cc([N+](=O)[O-])c1)c1cc2nc(-c3ccco3)cc(C(F)(F)F)n2n1` [CBK262534] was 110%; that for `COc1ccc(OC)c(C(C)NC(=O)C2CCN(Cc3cccc(C(F)(F)F)c3)CC2)c1` (stereo not drawn) [CBK148764] was 95.7%; that for `CCOc1ccsc1C(=O)N1CCc2ccccc2C1` [CBK200339] was 95.1%.
With `O=C(NCCc1c[nH]c2ccccc12)c1ccc(-c2ccco2)nc1N1CCN(C(=O)c2ccco2)CC1` [CBK076217], the viability at 28.5 h, 10 µM was determined as 95.4%.
As for `CS(=O)(=O)Nc1cc2ccccc2c(-c2ccc3c(c2)CCO3)n1` [CBK073773], the viability at 28.5 h, 10 µM turned out to be 90.5%.
The figure for `Cc1ccc(NC(=O)c2ccccc2NS(=O)(=O)c2ccc(C(C)C)cc2)cc1` [CBK113800] is 77.8%.
The figure for `O=C(Nc1snnc1-c1ccc(Cl)cc1)c1cccc(C(F)(F)F)c1` [CBK153246] is 72.5%; for `Nc1ncnc2c1ncn2CCN1CCOCC1` [CBK269049] it is 104%; for `Cc1nc(S(=O)(=O)N2CCC(OCC3CC3)C2)cn1C` (stereo not drawn) [CBK304668] it is 102%.
Take `CCCS(=O)(=O)n1c(=O)n(Cc2ccc(OC)cc2)c2ccccc21` [CBK106553]: the viability at 28.5 h, 10 µM is 99.7%.
With `CC(C)CCc1c(O)nc(SCCN(C)C)[nH]c1=O` [CBK263382], the viability at 28.5 h, 10 µM was 95.3%.
For the compound `CN1C(=O)c2ccccc2OCCCCC[C@H]2[C@@H]1CCCN2C(=O)c1ccccc1Cn1cncn1` [CBK292114], the viability at 28.5 h, 10 µM was found to be 110%.
With `CCOC(=O)C1(Cc2ccc(F)cc2F)CCCN(C(C)=O)C1` (stereo not drawn) [CBK307516], the viability at 28.5 h, 10 µM was found to be 106%.
The figure for `O=C(O)c1ccc(-c2n[nH]c(=O)c3c2CCCC3)cc1` [CBK287868] is 93.6%.
As to `O=C(CN1C2CCC1CC(O)(c1ccco1)C2)N1CCCCC1` (stereo not drawn) [CBK284093], the viability at 28.5 h, 10 µM worked out at 90.3%.
The value for `CCn1c(SCC(=O)N2CCCC2)nc2cc(C)[nH]c2c1=O` [CBK288027] was 99.9%.
Consider `Cc1ccc(S(=O)(=O)N2CCN(c3ccc([N+](=O)[O-])c(NCCN4CCOCC4)c3)CC2)cc1` [CBK265432], for which the viability at 28.5 h, 10 µM came out at 102%.
On to `O=S1(=O)CCN(Cc2cnn(-c3cncnc3)n2)CC1` [CBK112878], for which the viability at 28.5 h, 10 µM came out at 100%.
The figure for `CCOC(=O)c1[nH]c2ccccc2c1NS(=O)(=O)c1ccc(NC(C)=O)cc1` [CBK047411] is 81.4%; for `CC(C)(C)n1cc(C(=O)N2CCNCC2c2cccc(Cl)c2)cn1` (stereo not drawn) [CBK304112] it is 96.9%.
The value for `COc1cc2c3c([nH]c2cc1F)C1(CCN(CCOc2ccccc2)C1)NCC3` (stereo not drawn) [CBK115687T] was 77.6%; that for `O=C(NC1CCCc2c1cnn2-c1ccc(F)cc1)c1ccncc1` (stereo not drawn) [CBK283929] was 91.6%; that for `CCC(=O)N1CCC2(CCCC[C@H]3CN(C(C)=O)CC[C@H]3NC(=O)CNC2=O)CC1` [CBK292147] was 96.6%.
Consider `CS(=O)(=O)Nc1ccc2cc(-c3ccsc3)cnc2n1` [CBK085665], for which the viability at 28.5 h, 10 µM was found to be 102%.
The value for `Cc1ccc(C)c(C(=O)CCC(=O)Nc2cccnc2)c1` [CBK266902] was 95.8%; that for `CCCn1ncc(C(=O)N2CCc3c([nH]c4ccccc34)C2C)c1C` (stereo not drawn) [CBK281546] was 98.3%; that for `Cc1oc2c(c1C(=O)NC(C)c1ccccn1)CCCC2` (stereo not drawn) [CBK281825] was 109%.
As for `COc1cccc(-c2cnc(N(C)C)nc2C2CCCN2Cc2ccc3ncccc3c2)c1` (stereo not drawn) [CBK286251], the viability at 28.5 h, 10 µM is 85.5%.
In the case of `CNS(=O)(=O)N1CCN(S(=O)(=O)NC)CC1` [CBK007064], the viability at 28.5 h, 10 µM stood at 93.7%.
The value for `CC(=O)Nc1ccc(Oc2cc(C)nc(C3CCCNC3)c2)cc1` (stereo not drawn) [CBK283443] was 88.1%.
Regarding `O=C(NCc1ccccn1)c1ccc(CNS(=O)(=O)c2cccc(C(F)(F)F)c2)cc1` [CBK267291], the viability at 28.5 h, 10 µM was found to be 87.7%.
The figure for `Cc1ccc(CC2CCCN(C(=O)NCc3cnn(C)c3)C2)cc1` (stereo not drawn) [CBK303990] is 91.8%; for `O=C(Nc1ccc(F)cc1)c1cccc(NS(=O)(=O)c2cc(Br)c(Cl)s2)c1` [CBK050410] it is 93.4%.
The value for `CC(C)C(=O)Nc1cc2cccnc2nc1-c1ccsc1` [CBK073649] was 87.8%; that for `Cc1cc(C(=O)NCc2ccc(-c3csnn3)cc2)n[nH]1` [CBK149314] was 88.8%; that for `COc1ccc(NC(=O)C(=O)NCc2ccncc2)cc1` [CBK287723] was 105%.
The value for `CCCn1c(C)c(C)n2c3c(=O)n(CCC(=O)OC)c(=O)n(C)c3nc12` [CBK306048] was 98.4%; that for `COc1ccc(CNC(=O)C(=O)NCc2ccccc2)cc1` [CBK262158] was 103%.
For `O=C(Nc1cccc(Oc2ccccc2)c1)c1ccc2[nH]ccc2c1` [CBK161728], the viability at 28.5 h, 10 µM came to 97.5%.
On to `FC(F)(F)c1ccc(OC2CCNCC2)nc1` [CBK113287], for which the viability at 28.5 h, 10 µM was 83%.
As to `COc1ccc(C(=O)N2CCC[C@H]3NC(=O)COc4ccccc4C(=O)N[C@@H]4CCOC[C@@H]4C/C=C/C[C@@H]32)cc1` [CBK292194], the viability at 28.5 h, 10 µM turned out to be 102%.
The value for `CC(C)(C)CC(=O)N1CCCC1c1n[nH]cc1-c1ccncc1` (stereo not drawn) [CBK283430] was 88.5%.
With `Cc1nc(Cc2nc(-c3ccc4c(c3)CCCN4S(C)(=O)=O)cs2)cs1` [CBK304542], the viability at 28.5 h, 10 µM was found to be 97.3%.
In the case of `O=C(O)c1cccc(-n2c(S)nnc2-c2ccc3ccccc3n2)c1` [CBK265810], the viability at 28.5 h, 10 µM amounted to 103%.
As to `O=C(O)CCc1ccc(-c2cccs2)n1NC(=O)c1ccc(Cl)cc1` [CBK264738], the viability at 28.5 h, 10 µM is 95.5%.
The value for `O=C(NCC(F)(F)F)c1cnc(-c2ccc(Cl)cc2)c(-c2ccco2)c1` [CBK037468] was 86.2%; that for `C/C(=C\C(=O)Nc1ccc(O)cc1C(=O)O)c1ccccc1` [CBK265125] was 115%.
The figure for `CC(C)[C@@H](CO)n1c(=O)[nH]c2ncc(-c3cccc4cccnc34)nc21` [CBK064848] is 102%; for `CCCNc1nccnc1-c1ccccc1F` [CBK037231] it is 104%.
The value for `N#CCCn1cc(C(=O)Oc2ccc(-c3ccccc3)cc2)c(-c2cccc([N+](=O)[O-])c2)n1` [CBK267968] was 105%; that for `COc1cccc(CNC(=O)C2CCCN(c3nc4c(-c5ccccc5)csc4c(=O)[nH]3)C2)c1` (stereo not drawn) [CBK215463] was 99.8%; that for `O=C(Cc1ccccc1)N1CCN(c2ncccn2)CC1` [CBK144518] was 116%.
Take `O=C1C2C3C=CC(C3)C2C(=O)N1CCNCCO` (stereo not drawn) [CBK264414]: the viability at 28.5 h, 10 µM is 93%.
The value for `CC1CCc2c(C(=O)N3CCC4(CC3)NC(=O)NC4=O)csc2C1` (stereo not drawn) [CBK305741] was 101%.
Consider `OCn1nc(-c2ccc(Cl)cc2Cl)oc1=S` [CBK288410], for which the viability at 28.5 h, 10 µM was determined as 107%.
The value for `Cc1cc(C)n(-c2ccc3nnc(CCCC(=O)O)n3n2)n1` [CBK307630] was 87.1%; that for `O=C1CNC(=O)C2(C/C=C/C[C@H]3COCC[C@@H]3N1)CCN(C(=O)c1cccc(Cl)c1)CC2` [CBK292066] was 111%.
The figure for `FC(F)(F)c1cc(-c2cn3ccnc3c(N3CCOCC3)n2)cc(C(F)(F)F)c1` [CBK066396] is 93.4%; for `CCNC(=O)NC[C@H]1C[C@@H]2CCN1C[C@@H]2c1cc(-c2ccc(F)cc2)nn1C` [CBK289110] it is 88%; for `CC1(OCCCN2CCCCC2)SC(NC2CC3CCC2C3)=NC1=O` (stereo not drawn) [CBK115611] it is 87.2%.
With `Cc1cccc(OCc2nc3c4c5c(sc4ncn3n2)CCCCC5)c1C` [CBK265284], the viability at 28.5 h, 10 µM is 104%.
The value for `Cc1cc(OC(C)C(=O)Nc2ccccc2C(=O)N2CCCCC2)ccc1Cl` (stereo not drawn) [CBK269696] was 104%.
With `CC(C(=O)Nc1cccc2[nH]ccc12)c1ccc(Cl)cc1` (stereo not drawn) [CBK159647], the viability at 28.5 h, 10 µM was determined as 107%.
